From publication PMC8061081 (Fitoterapia, 2021) come the findings set out here.

Test [1] addresses T1, SARS-CoV-2 3CL^pro (Severe acute respiratory syndrome coronavirus 2, UniProt P0DTD1). The test can be described thus: biochemical.
Test [2] has as its target T1, SARS-CoV-2 3CL^pro. The test is described as follows: Inhibition kinetics, determination of inhibition constants. The conditions noted are these: inhibition kinetic plots and Lineweaver-Burk plots. It is filed as biochemical.

Each structure is given as a SMILES string. Where two headings read alike, the source gives them in different places.

What is called IC50 is the midpoint of a concentration-inhibition curve. A lower IC50 goes with higher potency. In the case of `CCCCCCCCCCCCCc1cccc(O)c1C(=O)O` [GA C13:0], the IC50 at SARS-CoV-2 3CL^pro [1] (pH 7.4) stood at 3.57 ± 0.9 µM.
In the case of `CCCCCCCCCCCCCCCc1cccc(O)c1C(=O)O` [GA C15:0], the Inhibition mode result on SARS-CoV-2 3CL^pro [2] is “reversible and mixed-inhibition”.
At SARS-CoV-2 3CL^pro [1] (pH 7.4), `CCCCCC/C=C\CCCCCCCc1cccc(O)c1C(=O)O` [GA C15:1] returned an IC50 of 3.45 ± 0.78 µM.
Take `CCCCCC/C=C\CCCCCCCCCc1cccc(O)c1C(=O)O` [GA C17:1]: the Inhibition mode result on SARS-CoV-2 3CL^pro [2] was “reversible and mixed-inhibition”. Also, inhibition on SARS-CoV-2 3CL^pro [1] (pH 7.4) was half-maximal at 1.19 ± 0.15 µM (IC50).
`O=c1cc(-c2ccc(O)c(-c3c(O)cc(O)c4c(=O)cc(-c5ccc(O)cc5)oc34)c2)oc2cc(O)cc(O)c12` [amentoflavone] yielded an IC50 at SARS-CoV-2 3CL^pro [1] of 8.65 ± 3.72 µM.
Take `CC(C)(C)[C@]1(O)CC2OC(=O)CC23C(=O)OC2OC(=O)[C@H](O)C231` (some centres unmarked) [bilobalide]: the IC50 on SARS-CoV-2 3CL^pro [1] was > 100 µM.
At SARS-CoV-2 3CL^pro [1], `COc1ccc(-c2cc(=O)c3c(O)cc(O)cc3o2)cc1-c1c(O)cc(O)c2c(=O)cc(-c3ccc(O)cc3)oc12` [bilobetin] gave an IC50 of 11.2 ± 2.41 µM.
On SARS-CoV-2 3CL^pro [1], `COc1cc(O)c2c(=O)cc(-c3ccc(O)cc3)oc2c1` [genkwanin] came in with an IC50 of 10.6 ± 1.89 µM.
In turn, `COc1cc(O)c2c(=O)cc(-c3ccc(OC)c(-c4c(O)cc(O)c5c(=O)cc(-c6ccc(O)cc6)oc45)c3)oc2c1` [ginkgetin] yielded an IC50 on SARS-CoV-2 3CL^pro [1] of 2.98 ± 0.86 µM.
On the same count and under the same terms, next, `C[C@@H]1C(=O)O[C@H]2C[C@@]34[C@H]5C[C@@H](C(C)(C)C)[C@]36[C@@H](OC(=O)[C@@H]6O)O[C@@]4(C(=O)O5)[C@]21O` [ginkgolide A]: > 100 µM; `COc1ccc(-c2cc(=O)c3c(O)cc(O)c(-c4cc(-c5cc(=O)c6c(O)cc(O)cc6o5)ccc4OC)c3o2)cc1` [isoginkgetin]: 2.33 ± 0.46 µM.
Same read-out and setting: next, `COc1cc(-c2oc3cc(O)cc(O)c3c(=O)c2O)ccc1O` [isorhamnetin]: 31.6 ± 16.6 µM; `O=c1c(O)c(-c2ccc(O)cc2)oc2cc(O)cc(O)c12` [kaempferol]: > 100 µM; `C[C@@H]1O[C@@H](Oc2c(-c3ccc(O)c(O)c3)oc3cc(O)cc(O)c3c2=O)[C@H](O)[C@H](O)[C@H]1O` [quercitrin]: > 100 µM.
Regarding `COc1ccc(-c2cc(=O)c3c(O)cc(O)c(-c4cc(-c5cc(=O)c6c(O)cc(OC)cc6o5)ccc4OC)c3o2)cc1` [sciadopitysin], on SARS-CoV-2 3CL^pro [2], the Inhibition mode result was “reversible and mixed-inhibition”. The same molecule registered an IC50 on SARS-CoV-2 3CL^pro [1] (3CLpro 4 μg/mL, preincubation 37 °C 40 min, substrate 20 μM, PBS pH 7.4) of 1.09 ± 0.19 µM.
